Experimental findings from US9067898B1, “Isothiazole derivatives as GPR120 agonists for the treatment of type II diabetes” (Janssen Pharmaceutica NV, priority 2014, dated 2015) are described below.

The target in assay [1] is T1, short form of the GPR120 receptor (GPR120S) (Homo sapiens, UniProt Q5NUL3).
T1 construct: host or cells: PathHunter CHO-K1 GPR120S β-Arrestin Cell Line
As to the kind of experiment: Human GPR120 DiscoveRx PathHunter Beta-Arrestin assay, Procedure β-arrestin B. It counts as cell-based. Conditions: PathHunter CHO-K1 GPR120S β-Arrestin cell line, 5000 cells/well, read-out: hGPR120 β-arrestin B EC50. From the text: The binding of an agonist (medium/long chain fatty acids or small molecule agonists) to the G-protein-coupled receptor GPR120 activates phospholipase C, leading to release of intracellular Ca^+2 through the generation of inositol 1,4,5-trisphosphate (InsP3 or IP3). GPR120 activation can also trigger intracellular signaling via recruitment of Beta-Arrestin. In the present method, agonist-induced activation of the human GPR120 receptor is monitored through the use of PathHunter CHO-K1 GPR120 Beta-Arrestin Cell Line engineered by DiscoveRx, as detailed below. The cell lines are designed to co-express both the ProLink/Enzyme Donor (PK)-tagged GPCR and the Enzyme […] (EA)-tagged Beta-Arrestin fusion proteins. Upon GPR120 receptor stimulation/activation, the EA-tagged Beta-Arrestin portion is translocated to the tagged receptor, where the two enzyme fragments are brought within close proximity. Under these conditions, these fragments can interact and form an active Beta-gal enzyme complex through Enzyme Fragment Complementation (EFC). This active Beta-gal complex can enzymatically hydrolyse the substrate to produce a detectable light signal; therefore, activation as a function of agonist concentration can be expressed as an EC50 value to determine relative compound activities. This in vitro assay therefore serves to assess compound agonist activity of the GPR120. Procedure β-Arrestin A: In Procedure β-arrestin A, the cell used were PathHunter CHO-K1 GPR120 β-Arrestin Cell Line, expressing the long form of human GPR120 (Genbank accession number NM 181745), with 3000 cells per well. Procedure β-Arrestin B: In Procedure 3-arrestin B the cells used were PathHunter CHO-K1 GPR120S β-Arrestin Cell Line, expressing the short form of the GPR120 receptor (Accession #NM_181745), with 5000 cells/well. Assay Procedure:
The selected CHO-K1 GPR120 β-Arrestin cells were cultured in Ham's F12 media supplemented with 10% fetal bovine serum (FBS), 1% Glutamine, lx p/s, 800 μg/mL G418 and 300 μg/mL Hygromycin B (for selection). Cell stocks were maintained and grown in a sub-confluent state using standard cell culture procedures. The day before the experiment, the cells were harvested with non-enzymatic cell dissociation buffer and re-suspended in complete growth media at the desired concentration. A Corning 384-plate was then seeded with the proper number of cells in a volume of 25 μL, per well. The seeded plates were incubated overnight at 37° C.
On the day of the experiment, the Assay Buffer containing (a) HBSS with Ca^++ and Mg^++, (b) 20 mM HEPES, and (c) 0.1% BSA stabilizer (pH 7.4) was prepared. The growth medium was gently removed from the cell plates and 20 μL of Assay Buffer added to each well. The plate was then incubated at 37° C. for 60 min. Test compounds were serially diluted in Assay Buffer to desired concentrations (more particularly to one or more of the following μM concentrations: 25, 12.5, 6.25, 3.125, 1.5625, 0.78125, 0.390625, 0.1953125, 0.09765625, 0.048828125, 0.024414063, 0.012207031). Five μL of compound dilution was then added to each well and the plate incubated at 37° C. for 90 min. The detection reagents were prepared according to the manufacture's instruction. Twelve μL of the detection reagents were added to each well and the plate incubated at room temperature for 60 min.
The plates were read on an EnVision instrument, using Protocol name: Luminescence, Plate type: 384 Costar, Measurement height: 3 mm, Measurement time: 1 s, Aperture: 384 Plate aperture. The % activity relative to the positive control was calculated using the following equation:
The % Activity values were plotted versus the concentration of test compound and fitted to a sigmoidal dose-response curve with a Hill slope=1 (fixed value) using nonlinear regression with GraphPad Prism 5.0 to calculate the EC50 values. […]

The next assay addresses T2, Human GPR120 short form (Homo sapiens, UniProt Q5NUL3).
T2 construct: expressed in transfected cells
T2 sequence (Q5NUL3 1-361): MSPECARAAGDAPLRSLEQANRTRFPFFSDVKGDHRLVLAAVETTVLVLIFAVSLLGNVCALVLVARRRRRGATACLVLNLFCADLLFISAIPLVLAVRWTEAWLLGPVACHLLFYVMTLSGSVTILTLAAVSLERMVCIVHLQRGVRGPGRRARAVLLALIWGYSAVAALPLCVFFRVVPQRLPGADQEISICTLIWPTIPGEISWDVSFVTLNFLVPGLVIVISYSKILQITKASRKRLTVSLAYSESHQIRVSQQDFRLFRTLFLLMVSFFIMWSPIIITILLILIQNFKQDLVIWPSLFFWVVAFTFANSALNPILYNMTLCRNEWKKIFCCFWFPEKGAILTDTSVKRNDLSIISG
As to the kind of experiment: Human GPR120 calcium flux assay (FLIPR), Procedure Calcium A. It counts as cell-based. Particulars: HEK-293 cells expressing human GPR120 short form, 2500 cells/well; read-out: GPR120 Ca2+ Assay A EC50. The essentials: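 HEK293 cells stably expressing the short isoform (NM_001195755.1), 2500/well, starved 1 h, then loaded with Fluo-4 NW plus probenecid (30 min 37 °C, 15 min RT). Compound solutions 0.012–100 μM, 0.2% DMSO final; FLIPR read 300 s after addition. EC50 from Fmax−Fmin fitted to variable-slope sigmoid (Hill <2).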
In general terms: A change in cytosolic calcium serves as a functional read-out for many receptors and channels.

T1 sequence (P32121 whole entry partner, one chain of several): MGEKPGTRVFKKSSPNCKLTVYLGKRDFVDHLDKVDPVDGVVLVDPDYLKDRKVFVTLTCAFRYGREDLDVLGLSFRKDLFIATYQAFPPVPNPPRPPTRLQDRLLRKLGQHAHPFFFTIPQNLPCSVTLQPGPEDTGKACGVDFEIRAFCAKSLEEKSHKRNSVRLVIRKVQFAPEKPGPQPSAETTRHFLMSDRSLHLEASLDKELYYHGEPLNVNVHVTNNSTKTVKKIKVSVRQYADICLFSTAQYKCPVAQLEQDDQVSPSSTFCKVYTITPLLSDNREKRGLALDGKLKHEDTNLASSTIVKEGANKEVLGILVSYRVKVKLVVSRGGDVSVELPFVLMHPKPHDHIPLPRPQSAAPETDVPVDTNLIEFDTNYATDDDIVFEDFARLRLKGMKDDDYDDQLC

As for `CC(Cc1cc(F)c(OCc2c(-c3ccc(F)cc3F)nsc2C(F)(F)F)c(F)c1)C(=O)O` (stereo not drawn) [Cpd 196, 3-(4-((3-(2,4-difluorophenyl)-5-(trifluoromethyl)isothiazol-4-yl)methoxy)-3,5-difluorophenyl)-2-methylpropanoic acid], the EC50 (in general, the midpoint of the concentration-response curve) in assay [1] was determined as 195 nM; on Human GPR120 short form, 370 nM.

Regarding `COc1cc(F)c(-c2nsc(C(F)(F)F)c2COc2c(F)cc(CCC(=O)O)cc2F)c(F)c1` [Cpd 197, 3-(4-[[3-(2,6-difluoro-4-methoxyphenyl)-5-(trifluoromethyl)-1,2-thiazol-4-yl]methoxy]-3,5-difluorophenyl)propanoic acid], the EC50 is 224 nM in assay [1] and 392 nM at Human GPR120 short form.

For the molecule `Cc1c(CCC(=O)O)ccc(OCc2c(C3CCC(F)(F)C3)nsc2C(F)(F)F)c1C` (stereo not drawn) [Cpd 199, 3-(4-[[3-(3,3-difluorocyclopentyl)-5-(trifluoromethyl)-1,2-thiazol-4-yl]methoxy]-2,3-dimethylphenyl)propanoic acid], the EC50 in assay [1] is 622 nM; on Human GPR120 short form, 423 nM.

As for `Cc1ccccc1-c1snc(C(F)(F)F)c1COc1ccc(CCC(=O)O)c(C(F)(F)F)c1` [Cpd 203, 3-(4-[[5-(2-methylphenyl)-3-(trifluoromethyl)-1,2-thiazol-4-yl]methoxy]-2-(trifluoromethyl)phenyl) propanoic acid], the EC50 is 1480 nM in assay [1] and 478 nM on Human GPR120 short form.

In the case of `O=C(O)C1CC1c1ccc(OCc2c(-c3ccc(Cl)cc3)nsc2C(F)(F)F)cc1` (stereo not drawn) [Cpd 205, 2-(4-((3-(4-chlorophenyl)-5-(trifluoromethyl)isothiazol-4-yl)methoxy)phenyl)cyclopropanecarboxylic acid], the EC50 in assay [1] turned out to be 741 nM; on Human GPR120 short form, 530 nM.

As to `O=C(O)CCc1ccc(OCc2c(C(F)(F)F)nsc2-c2ccc(Cl)cc2)cc1Cl` [Cpd 208, 3-(2-chloro-4-[[5-(4-chlorophenyl)-3-(trifluoromethyl)-1,2-thiazol-4-yl]methoxy]phenyl)propanoic acid], the concentration for a half-maximal effect (EC50) was found to be 554 nM in assay [1] and 578 nM on Human GPR120 short form.

For the molecule `Cc1cc(CCC(=O)O)c(C(F)(F)F)cc1OCc1c(Cl)nsc1-c1ccccc1C` [Cpd 210, 3-(4-((3-chloro-5-(o-tolyl)isothiazol-4-yl)methoxy)-5-methyl-2-(trifluoromethyl)phenyl)propanoic acid], the EC50 in assay [1] amounted to 1050 nM; at Human GPR120 short form it was 580 nM.

Take `CCc1ccc(-c2nsc(C(F)(F)F)c2COc2c(F)cc(CC(C)C(=O)O)cc2F)cc1F` (stereo not drawn) [Cpd 212, 3-(4-((3-(4-ethyl-3-fluorophenyl)-5-(trifluoromethyl)isothiazol-4-yl)methoxy)-3,5-difluorophenyl)-2-methylpropanoic acid]: the EC50 in assay [1] worked out at 74 nM; on Human GPR120 short form it was 600 nM.

Consider `CCc1cc(CCC(=O)O)c(C(F)(F)F)cc1OCc1c(Cl)nsc1-c1ccccc1C` [Cpd 215, 3-(4-((3-chloro-5-(o-tolyl)isothiazol-4-yl)methoxy)-5-ethyl-2-(trifluoromethyl)phenyl)propanoic acid], for which the EC50 in assay [1] turned out to be 2140 nM; at Human GPR120 short form, 648 nM.

As for `Cc1ccc(-c2snc(C(F)(F)F)c2COc2ccc(CCC(=O)O)c(C(F)(F)F)c2)c(F)c1` [Cpd 221, 3-(4-[[5-(2-fluoro-4-methylphenyl)-3-(trifluoromethyl)-1,2-thiazol-4-yl]methoxy]-2-(trifluoromethyl)phenyl)propanoic acid], the results for the EC50 (in assay [1]; at Human GPR120 short form) were 731 nM and 756 nM, respectively.

For `COc1cc(OCc2c(Cl)nsc2-c2ccccc2C)ccc1CCC(=O)O` [Cpd 222, 3-(4-((3-chloro-5-(o-tolyl)isothiazol-4-yl)methoxy)-2-methoxyphenyl)propanoic acid], the figures for the EC50 (in assay [1]; at Human GPR120 short form) were 1950 nM and 757 nM, respectively.

For `Cc1c(CCC(=O)O)ccc(OCc2c(-c3ccc(C(F)(F)F)cc3)nsc2C(F)(F)F)c1C` [Cpd 224, 3-(2,3-dimethyl-4-[[5-(trifluoromethyl)-3-[4-(trifluoromethyl)phenyl]-1,2-thiazol-4-yl]methoxy]phenyl)propanoic acid], the EC50 turned out to be 229 nM in assay [1] and 831 nM on Human GPR120 short form.

For `CCc1ccc(-c2nsc(C(F)(F)F)c2COc2ccc(CCC(=O)O)c(C)c2C)c(F)c1` [Cpd 225, 3-(4-((3-(4-ethyl-2-fluorophenyl)-5-(trifluoromethyl)isothiazol-4-yl)methoxy)-2,3-dimethylphenyl)propanoic acid], the EC50 was 227 nM in assay [1] and 840 nM on Human GPR120 short form.

Take `CCc1cc(OCc2c(Cl)nsc2-c2ccccc2C)ccc1CCC(=O)O` [Cpd 227, 3-(4-[[3-chloro-5-(2-methylphenyl)-1,2-thiazol-4-yl]methoxy]-2-ethylphenyl)propanoic acid]: the EC50 in assay [1] was determined as 3780 nM; on Human GPR120 short form, 867 nM.

`COc1cc(F)c(-c2nsc(C(F)(F)F)c2COc2ccc(CCC(=O)O)c(C)c2C)c(F)c1` [Cpd 229, 3-(4-[[3-(2,6-difluoro-4-methoxyphenyl)-5-(trifluoromethyl)-1,2-thiazol-4-yl]methoxy]-2,3-dimethylphenyl)propanoic acid]: the results for the EC50 (in assay [1]; at Human GPR120 short form) were 1810 nM and 936 nM, respectively.
